Results: PubChem BioAssay AID624167 (Sanford-Burnham Center for Chemical Genomics, 2012)
Calls of active or inactive are those of the source.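 The calls were made as follows: active = mean IC50 for reducing PEG3 promoter reporter signal at or below a set limit, with IC50 above the limit in both counter screens; inactive = the rest, including counter screen hits.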

Experiments:
[1] = Peg3 promoter luciferase inhibitors, potency, dose response, cell-based, HeLa, CREF/GAPDH counter-screen panel (AID 624167); settings: CREF/GAPDH counter-screens; GAPDH; mean of runs
GAPDH = assay: as above; settings: CREF/GAPDH counter-screens
PEG-3 [2] = biological target: PEG-3 (UniProt Q6IN02); assay: as above; settings: HeLa PEG-Prom luciferase reporter, overnight, CREF/GAPDH counter-screens, mean of runs
Sequence of PEG-3 (UniProt Q6IN02) (Q6IN02 whole entry, looked up): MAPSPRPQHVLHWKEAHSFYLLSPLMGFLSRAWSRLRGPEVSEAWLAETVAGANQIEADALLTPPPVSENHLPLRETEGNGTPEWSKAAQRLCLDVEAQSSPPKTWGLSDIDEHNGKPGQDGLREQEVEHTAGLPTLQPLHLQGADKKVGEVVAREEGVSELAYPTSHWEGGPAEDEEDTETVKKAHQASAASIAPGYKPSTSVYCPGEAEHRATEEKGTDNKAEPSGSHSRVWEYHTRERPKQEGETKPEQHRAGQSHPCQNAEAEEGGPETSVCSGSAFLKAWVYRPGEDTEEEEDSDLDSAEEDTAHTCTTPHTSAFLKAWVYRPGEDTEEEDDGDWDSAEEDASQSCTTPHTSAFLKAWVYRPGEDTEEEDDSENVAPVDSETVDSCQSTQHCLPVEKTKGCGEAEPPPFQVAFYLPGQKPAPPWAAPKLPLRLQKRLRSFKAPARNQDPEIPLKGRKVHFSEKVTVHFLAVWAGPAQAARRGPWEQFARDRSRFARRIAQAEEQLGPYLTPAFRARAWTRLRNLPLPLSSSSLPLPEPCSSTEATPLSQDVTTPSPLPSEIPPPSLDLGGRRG

PEG-3 [3] = assay: as above; settings: HeLa PEG-Prom luciferase reporter, overnight, CREF/GAPDH counter-screens
Rat fibroblasts (CREF) = assay: as above; settings: CREF/GAPDH counter-screens
[4] = run 1, dose range 1, individual replicate IC50 per panel
[5] = run 2, dose range 1, individual replicate IC50 per panel

Row | Structure (SMILES) | IC50 [1] | IC50 (GAPDH; [4]) [µM] | IC50 (GAPDH; [5]) [µM] | IC50 (PEG-3 [2]) | IC50 (PEG-3 [3]; [4]) [µM] | IC50 (PEG-3 [3]; [5]) [µM] | IC50 (Rat fibroblasts (CREF); mean of runs) | IC50 (Rat fibroblasts (CREF); [4]) [µM] | IC50 (Rat fibroblasts (CREF); [5]) [µM]
1 | COc1cc(C(=O)N/N=C(\c2ccccc2)c2ccccn2)cc(OC)c1OC | > 100 µM (inactive) | > 100 | > 100 | 2.9 µM | 3.09 | 2.71 | 58.4 µM (inactive) | 44.9 | 72
2 | C=CCc1cccc(/C=N/NC(=O)C(C)Nc2cccc(C)c2)c1O (centres undefined) | > 100 µM (inactive) | > 100 | > 100 | 7.04 µM | 12.2 | 1.89 | > 100 µM (inactive) | > 100 | > 100
3 | COc1ccc(-n2c(O)c(/C=N/Nc3nc(C)cc(C)n3)c3ccccc3c2=O)cc1OC | > 100 µM (inactive) | > 100 | > 100 | 4.99 µM | 2.71 | 7.28 | 50.9 µM (inactive) | 44.5 | 57.3
4 | Cc1cc(NC(c2ccc(Cl)cc2)c2ccc3cccnc3c2O)no1 (centres undefined) | > 100 µM (inactive) | > 100 | > 100 | 3.83 µM | 7.2 | 0.472 | 77.2 µM (inactive) | > 100 | 54.4
5 | CN(C)c1c([N+](=O)[O-])cc(N2C(=O)C=CC2=O)cc1[N+](=O)[O-] | 23.6 µM | 24.6 | 22.7 | 6.53 µM | 7.49 | 5.58 | 14 µM | 10.7 | 17.3
6 | Oc1[nH]c2ccc(Br)cc2c1N=NC(=S)N1CCOCC1 | 13.8 µM | 18.8 | 8.78 | 1.07 µM | 1.25 | 0.885 | 50.3 µM (inactive) | > 100 | 0.611
7 | CN(O)C(=S)c1ccccc1 | > 100 µM (inactive) | > 100 | > 100 | inactive | 10.3 | 42.5 | > 100 µM (inactive) | > 100 | > 100
8 | CN(C)c1ccc(C=c2c3ccccc3n3c2cc(-c2ccccc2)[n+]3C)cc1 | 8.31 µM | 9.4 | 7.23 | 4.3 µM | 7.06 | 1.54 | 29.4 µM | 27.5 | 31.3
9 | CCCn1nc(C(=O)Nc2nc(-c3ccccn3)cs2)c2ccccc2c1=O | inactive | > 100 | 80.9 | 7.73 µM | 7.15 | 8.31 | > 100 µM (inactive) | > 100 | > 100
10 | COc1cc(Nc2c3ccccc3nc3ccccc23)cc(OC)c1OC | inactive | 33.2 | 35 | 8.07 µM | 8.96 | 7.19 | 36.2 µM | 26.9 | 45.5
11 | COc1ccccc1Nc1nc(-c2sc(NC(=O)c3ccco3)nc2C)cs1 | > 100 µM (inactive) | > 100 | > 100 | inactive | 7.41 | > 100 | > 100 µM (inactive) | > 100 | > 100
12 | O=C(CNc1ccccc1)N/N=C/c1c(O)ccc2ccccc12 | > 100 µM (inactive) | > 100 | > 100 | inactive | 3.48 | > 100 | 51.1 µM (inactive) | 57.4 | 44.9
13 | COc1ccc2c(c1)c(=Cc1ccc(N(C)C)cc1)c1cc(-c3ccccc3)[n+](C)n12 | 7.04 µM | 6.61 | 7.46 | 2.27 µM | 3.17 | 1.37 | 26.9 µM | 24.8 | 29.1
14 | COc1cccc(OC)c1C(=O)Nc1cc(C)nn1-c1nc2ccccc2[nH]1 | > 100 µM (inactive) | > 100 | > 100 | 3.1 µM | 2.08 | 4.13 | > 100 µM (inactive) | > 100 | > 100
15 | Cc1ccc(C)c(S(=O)(=O)N2CCN(c3ncnc4sccc34)CC2)c1 | 28.7 µM | 9.4 | 48 | 2.53 µM | 2.58 | 2.47 | 58.7 µM (inactive) | > 100 | 17.4
16 | O=C(N/N=C/c1sc(N2CCOCC2)nc1-c1ccccc1)c1cccc(S(=O)(=O)N2CCCC2)c1 | inactive | 18.9 | 42 | 5.47 µM | 5.9 | 5.05 | 54 µM (inactive) | > 100 | 8

Row | Structure (SMILES) | IC50 [1] | IC50 (GAPDH; [4]) [µM] | IC50 (GAPDH; [5]) [µM] | IC50 (PEG-3 [2]) | IC50 (PEG-3 [3]; [4]) [µM] | IC50 (PEG-3 [3]; [5]) [µM] | IC50 (Rat fibroblasts (CREF); mean of runs) | IC50 (Rat fibroblasts (CREF); [4]) [µM] | IC50 (Rat fibroblasts (CREF); [5]) [µM]
17 | CC(=O)NC(c1ccc(Cl)cc1Cl)c1ccc2cccnc2c1O (centres undefined) | inactive | 31.5 | 61.9 | 1.77 µM | 0.852 | 2.68 | > 100 µM (inactive) | > 100 | > 100
18 | CC(/C=C/c1ccccc1)=N/NC(=O)c1cc([N+](=O)[O-])cc([N+](=O)[O-])c1 | inactive | > 100 | 9.02 | inactive | > 100 | 3.58 | 57.3 µM (inactive) | 14.5 | > 100
19 | Cc1oc(-c2ccc3c(c2)OCCO3)cc1C(=O)O | 5.18 µM | 4.06 | 6.29 | 3.93 µM | 3.12 | 4.73 | 34.2 µM | 31.2 | 37.3
20 | C=C1CC2(OC1=O)c1ccccc1CCc1ccccc12 | 13.8 µM | 15.2 | 12.5 | 4.84 µM | 5.7 | 3.98 | 7.93 µM | 7.58 | 8.28
21 | CN(C)S(=O)(=O)c1ccc(-c2csc(N/N=C/c3ccc(O)cc3)n2)cc1 | 12.1 µM | 11.7 | 12.5 | 8.22 µM | 8.68 | 7.77 | 9.81 µM | 9.26 | 10.4
22 | CC(=O)OC1CC[C@]2(C#N)[C@H]3CC[C@]4(C)[C@H](C5C=CC(=O)O5)CCC4(O)C3CCC2(O)C1 (some centres undefined) | 10.1 µM | 3.88 | 16.4 | 10.4 µM | 9.87 | 11 | > 100 µM (inactive) | > 100 | > 100
23 | COc1ccc(Nc2ncnc3ccc(Br)cc23)c(OC)c1 | 0.974 µM | 0.864 | 1.08 | 0.27 µM | 0.293 | 0.246 | > 100 µM (inactive) | > 100 | > 100
24 | C=CCn1c(COc2ccccc2)nnc1SC(C)C(=O)N/N=C/c1cc(Cl)ccc1O (centres undefined) | > 100 µM (inactive) | > 100 | > 100 | 4.26 µM | 5.09 | 3.43 | > 100 µM (inactive) | > 100 | > 100
25 | Cc1ccccc1CNC(=O)C1CCCN(c2nnc(C)c3c(C)n(-c4ccccc4)nc23)C1 (centres undefined) | inactive | 41.3 | 25.2 | 10.4 µM | 14.6 | 6.15 | 19.8 µM | 23.9 | 15.6
26 | CCc1ccc(/C=C2\SC(=S)N(CCCC(=O)Nc3ccccn3)C2=O)cc1 | 27.8 µM | 15.6 | 40.1 | 4.03 µM | 5.21 | 2.85 | 50.2 µM (inactive) | > 100 | 0.313
27 | CC1=NOC(=O)/C1=C\c1ccc(-c2ccccc2Br)o1 | 18.3 µM | 16.9 | 19.7 | 10.7 µM | 11.3 | 10.1 | 50 µM | 24.6 | 75.3
28 | O=C(Nc1ccccc1)c1nc[nH]c1C(=O)NCCCCCCNC(=O)c1[nH]cnc1C(=O)Nc1ccccc1 | inactive | > 100 | 16 | inactive | 2.4 | > 100 | > 100 µM (inactive) | > 100 | > 100
29 | CCCCC(=O)NC(c1ccccc1OC)c1ccc2cccnc2c1O (centres undefined) | inactive | 36.5 | > 100 | 10.6 µM | 3.35 | 17.8 | > 100 µM (inactive) | > 100 | > 100
30 | CCCCCCCNC(=O)C1(CC2CC(c3cccc(Br)c3)=NO2)CCNCC1 (centres undefined) | 15.4 µM | 13.5 | 17.3 | 7.4 µM | 8.05 | 6.76 | 16.5 µM | 16.1 | 16.9
31 | CCCC(=O)NC(c1ccc(Cl)cc1)c1ccc2cccnc2c1O (centres undefined) | inactive | 27.5 | 58.5 | 3.29 µM | 2.29 | 4.28 | > 100 µM (inactive) | > 100 | > 100
